Test results published in patent publication US9957247B2, “SecA inhibitors and methods of making and using thereof” (Georgia State University Research Foundation, Inc., priority 2012, dated 2018).
≈ marks a conversion by molar mass, not a printed value. Read-outs that look alike come from different tables or passages of the source.

Experiments:
[1] = molecular target: MtbSecA (Mycobacterium tuberculosis, UniProt P9WGP5); test: cell-based
[2] = system: S. aureus 8325-4; test: Bacteriostatic effect, S. aureus 8325-4 (WT); details: Staphylococcus aureus, 83254, read-out: Bacteriostatic effect, MIC, WT 8325-4
[3] = system: S. aureus deletion strains (NorA−, MepA−) and strains (NorA++, MepA++) with over-expressed efflux pumps; test: Antimicrobial effect with deletion or over expression of efflux pumps in S. aureus
[4] = molecular target: T1, EcSecA (Escherichia coli, UniProt P10408); test: cell-based
Target sequence in this assay (P10408 whole entry): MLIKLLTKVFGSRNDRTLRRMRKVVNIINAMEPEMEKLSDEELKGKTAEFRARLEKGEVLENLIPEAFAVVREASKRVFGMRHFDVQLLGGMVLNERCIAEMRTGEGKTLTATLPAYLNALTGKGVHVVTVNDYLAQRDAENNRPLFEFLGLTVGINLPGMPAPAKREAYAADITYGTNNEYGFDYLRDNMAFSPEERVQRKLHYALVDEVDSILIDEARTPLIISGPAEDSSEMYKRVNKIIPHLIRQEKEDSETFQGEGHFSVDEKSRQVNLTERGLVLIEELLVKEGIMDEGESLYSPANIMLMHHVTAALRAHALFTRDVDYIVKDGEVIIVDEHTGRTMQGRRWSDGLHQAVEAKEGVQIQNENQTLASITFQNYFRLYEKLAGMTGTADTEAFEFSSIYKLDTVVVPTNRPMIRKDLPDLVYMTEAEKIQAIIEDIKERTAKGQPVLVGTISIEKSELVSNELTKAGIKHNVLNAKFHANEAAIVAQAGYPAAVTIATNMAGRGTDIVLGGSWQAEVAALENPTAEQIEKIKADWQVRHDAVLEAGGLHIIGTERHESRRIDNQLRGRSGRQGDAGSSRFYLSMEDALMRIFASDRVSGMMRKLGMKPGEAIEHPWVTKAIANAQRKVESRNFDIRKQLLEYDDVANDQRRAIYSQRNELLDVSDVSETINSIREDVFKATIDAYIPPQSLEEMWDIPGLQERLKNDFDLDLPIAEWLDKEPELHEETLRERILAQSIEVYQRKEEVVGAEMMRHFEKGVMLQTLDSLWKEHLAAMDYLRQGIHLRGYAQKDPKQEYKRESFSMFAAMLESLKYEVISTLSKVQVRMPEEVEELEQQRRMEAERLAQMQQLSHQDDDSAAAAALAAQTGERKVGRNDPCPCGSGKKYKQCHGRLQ

[5] = system: S. aureus Mu3; test: Bacteriostatic effect, S. aureus Mu3; details: Staphylococcus aureus, MU3, read-out: Bacteriostatic effect, MIC, S. aureus Mu3
[6] = molecular target: T1, EcSecA; test: biochemical; details: IC50, Translocation ATPase, Table 1
Target sequence in this assay (P0AG99 whole entry): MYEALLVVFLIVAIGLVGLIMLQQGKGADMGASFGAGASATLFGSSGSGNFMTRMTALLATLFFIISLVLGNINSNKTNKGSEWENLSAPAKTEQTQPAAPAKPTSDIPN
Target sequence in this assay (P10408 whole entry): as the sequence (P10408 whole entry) above
Target sequence in this assay (P0AGA2 whole entry, further chain): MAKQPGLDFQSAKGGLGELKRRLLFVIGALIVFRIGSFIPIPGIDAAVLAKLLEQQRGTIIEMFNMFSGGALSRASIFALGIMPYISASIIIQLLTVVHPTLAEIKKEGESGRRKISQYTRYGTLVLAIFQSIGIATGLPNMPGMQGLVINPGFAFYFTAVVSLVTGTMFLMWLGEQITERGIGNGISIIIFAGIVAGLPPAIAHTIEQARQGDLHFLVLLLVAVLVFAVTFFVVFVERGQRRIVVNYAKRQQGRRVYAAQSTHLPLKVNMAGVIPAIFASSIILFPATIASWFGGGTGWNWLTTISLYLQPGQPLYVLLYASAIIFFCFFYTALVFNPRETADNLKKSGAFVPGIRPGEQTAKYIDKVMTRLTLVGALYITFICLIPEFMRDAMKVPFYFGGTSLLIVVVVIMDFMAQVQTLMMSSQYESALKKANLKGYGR
Target sequence in this assay (P0AG96 whole entry, further chain): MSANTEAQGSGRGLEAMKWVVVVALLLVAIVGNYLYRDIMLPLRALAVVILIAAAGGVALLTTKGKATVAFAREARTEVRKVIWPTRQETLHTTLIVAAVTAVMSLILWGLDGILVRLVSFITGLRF

[7] = molecular target: PaSecA (Pseudomonas aeruginosa, UniProt Q9LCT3); test: cell-based; assay type: cell-based; details: IC50, Ion Channel activity, PASecA, Table 1
[8] = molecular target: T2, SaSecA2 (Staphylococcus aureus, UniProt Q2FUW6); test: ATPase activity assay (malachite green), SaSecA2; details: IC50, ATPase activity, SaSecA2, Table 7
T2 sequence (Q2FUW6 1-796): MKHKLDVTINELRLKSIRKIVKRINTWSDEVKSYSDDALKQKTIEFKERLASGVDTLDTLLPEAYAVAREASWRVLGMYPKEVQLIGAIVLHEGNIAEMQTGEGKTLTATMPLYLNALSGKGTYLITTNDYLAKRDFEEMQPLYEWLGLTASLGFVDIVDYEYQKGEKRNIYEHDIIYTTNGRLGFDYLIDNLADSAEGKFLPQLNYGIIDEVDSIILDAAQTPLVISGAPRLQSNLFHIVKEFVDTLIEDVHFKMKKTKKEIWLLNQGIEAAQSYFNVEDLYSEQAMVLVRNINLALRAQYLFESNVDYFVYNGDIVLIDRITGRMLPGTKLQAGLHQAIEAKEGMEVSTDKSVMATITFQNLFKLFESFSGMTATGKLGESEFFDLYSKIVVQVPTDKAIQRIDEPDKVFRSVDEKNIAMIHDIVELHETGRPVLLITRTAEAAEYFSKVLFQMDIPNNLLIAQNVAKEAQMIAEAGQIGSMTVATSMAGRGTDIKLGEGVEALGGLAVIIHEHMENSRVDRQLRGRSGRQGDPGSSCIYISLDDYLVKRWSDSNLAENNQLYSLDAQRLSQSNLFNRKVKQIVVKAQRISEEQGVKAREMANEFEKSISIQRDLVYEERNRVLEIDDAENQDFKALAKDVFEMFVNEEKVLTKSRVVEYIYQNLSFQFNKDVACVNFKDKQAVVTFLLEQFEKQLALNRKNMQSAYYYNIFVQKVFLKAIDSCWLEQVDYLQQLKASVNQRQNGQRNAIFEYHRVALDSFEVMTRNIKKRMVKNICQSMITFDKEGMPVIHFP

[9] = molecular target: BsSecA2; details: read-out: IC50, Intrinsic ATPase, BsSecA2; Table 1
[10] = molecular target: T3, SaSecA1 (Staphylococcus aureus, UniProt O06446); details: read-out: IC50, ATPase activity, SaSecA1; Table 7
T3 sequence (O06446 1-843): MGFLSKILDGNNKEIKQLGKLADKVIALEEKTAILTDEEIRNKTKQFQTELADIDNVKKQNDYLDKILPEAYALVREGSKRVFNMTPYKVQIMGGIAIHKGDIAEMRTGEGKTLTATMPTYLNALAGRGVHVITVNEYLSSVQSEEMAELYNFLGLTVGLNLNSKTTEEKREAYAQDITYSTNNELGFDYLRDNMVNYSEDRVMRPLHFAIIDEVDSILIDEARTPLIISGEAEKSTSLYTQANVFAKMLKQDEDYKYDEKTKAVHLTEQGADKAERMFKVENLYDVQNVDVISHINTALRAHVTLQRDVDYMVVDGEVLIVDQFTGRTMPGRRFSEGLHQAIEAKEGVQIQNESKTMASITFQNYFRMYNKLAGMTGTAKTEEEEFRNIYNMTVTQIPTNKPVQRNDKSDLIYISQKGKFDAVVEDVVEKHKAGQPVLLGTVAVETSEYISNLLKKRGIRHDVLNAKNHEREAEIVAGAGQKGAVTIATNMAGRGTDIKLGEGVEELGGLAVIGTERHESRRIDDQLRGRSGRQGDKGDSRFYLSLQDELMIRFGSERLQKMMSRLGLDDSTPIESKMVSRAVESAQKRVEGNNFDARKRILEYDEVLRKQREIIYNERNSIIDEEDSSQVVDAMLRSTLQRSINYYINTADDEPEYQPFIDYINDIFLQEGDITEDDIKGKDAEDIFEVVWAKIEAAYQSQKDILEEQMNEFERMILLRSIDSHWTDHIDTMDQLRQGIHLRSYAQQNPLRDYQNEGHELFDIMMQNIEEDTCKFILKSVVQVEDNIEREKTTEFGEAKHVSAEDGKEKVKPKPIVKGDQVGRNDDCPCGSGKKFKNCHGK

[11] = system: S. pyogenes, MGAS5005; test: MIC95, S. pyogenes MGAS5005; assay type: cell-based; details: Streptococcus pyogenes, MGAS5005; read-out: MIC95, S. pyogenes MGAS5005
[12] = system: S. aureus N315; test: Bacteriostatic effect, S. aureus N315; details: Staphylococcus aureus, N315, read-out: Bacteriostatic effect, MIC, S. aureus N315
[13] = system: S. aureus Mu50; test: Bacteriostatic effect, S. aureus Mu50; details: for MIC: Staphylococcus aureus
[14] = molecular target: T3, SaSecA1; test: cell-based
[15] = molecular target: T1, EcSecA; test: biochemical; parameters: species or system E. coli; details: IC50, Intrinsic ATPase, Table 1, full-length EcSecA
Target sequence in this assay (P10408 whole entry): as the sequence (P10408 whole entry) above

PaSecA, sequence (Q9LCT3 whole entry): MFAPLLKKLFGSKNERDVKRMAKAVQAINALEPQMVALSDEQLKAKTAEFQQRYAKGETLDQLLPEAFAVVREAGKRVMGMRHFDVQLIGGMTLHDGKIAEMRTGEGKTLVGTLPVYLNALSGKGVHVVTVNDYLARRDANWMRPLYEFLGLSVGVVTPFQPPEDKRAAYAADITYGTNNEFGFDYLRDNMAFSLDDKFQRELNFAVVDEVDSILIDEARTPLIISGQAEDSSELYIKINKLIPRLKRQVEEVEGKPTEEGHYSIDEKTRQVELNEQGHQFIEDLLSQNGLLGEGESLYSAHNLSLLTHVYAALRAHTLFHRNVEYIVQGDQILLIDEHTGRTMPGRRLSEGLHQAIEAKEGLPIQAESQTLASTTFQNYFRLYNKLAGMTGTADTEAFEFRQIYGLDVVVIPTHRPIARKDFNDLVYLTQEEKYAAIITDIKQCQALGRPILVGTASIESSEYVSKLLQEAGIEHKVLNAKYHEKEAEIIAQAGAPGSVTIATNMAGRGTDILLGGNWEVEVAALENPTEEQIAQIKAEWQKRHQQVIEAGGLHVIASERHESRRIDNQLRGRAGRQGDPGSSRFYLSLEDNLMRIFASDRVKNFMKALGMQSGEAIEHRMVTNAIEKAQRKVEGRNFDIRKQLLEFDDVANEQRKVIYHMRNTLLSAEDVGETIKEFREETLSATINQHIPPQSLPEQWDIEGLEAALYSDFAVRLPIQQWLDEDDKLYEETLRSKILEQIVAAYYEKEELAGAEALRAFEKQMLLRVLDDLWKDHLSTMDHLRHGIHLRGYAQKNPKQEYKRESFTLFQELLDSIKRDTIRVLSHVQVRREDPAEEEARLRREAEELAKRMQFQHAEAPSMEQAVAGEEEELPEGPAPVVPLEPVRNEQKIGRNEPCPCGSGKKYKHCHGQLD
MtbSecA, sequence (P9WGP5 whole entry): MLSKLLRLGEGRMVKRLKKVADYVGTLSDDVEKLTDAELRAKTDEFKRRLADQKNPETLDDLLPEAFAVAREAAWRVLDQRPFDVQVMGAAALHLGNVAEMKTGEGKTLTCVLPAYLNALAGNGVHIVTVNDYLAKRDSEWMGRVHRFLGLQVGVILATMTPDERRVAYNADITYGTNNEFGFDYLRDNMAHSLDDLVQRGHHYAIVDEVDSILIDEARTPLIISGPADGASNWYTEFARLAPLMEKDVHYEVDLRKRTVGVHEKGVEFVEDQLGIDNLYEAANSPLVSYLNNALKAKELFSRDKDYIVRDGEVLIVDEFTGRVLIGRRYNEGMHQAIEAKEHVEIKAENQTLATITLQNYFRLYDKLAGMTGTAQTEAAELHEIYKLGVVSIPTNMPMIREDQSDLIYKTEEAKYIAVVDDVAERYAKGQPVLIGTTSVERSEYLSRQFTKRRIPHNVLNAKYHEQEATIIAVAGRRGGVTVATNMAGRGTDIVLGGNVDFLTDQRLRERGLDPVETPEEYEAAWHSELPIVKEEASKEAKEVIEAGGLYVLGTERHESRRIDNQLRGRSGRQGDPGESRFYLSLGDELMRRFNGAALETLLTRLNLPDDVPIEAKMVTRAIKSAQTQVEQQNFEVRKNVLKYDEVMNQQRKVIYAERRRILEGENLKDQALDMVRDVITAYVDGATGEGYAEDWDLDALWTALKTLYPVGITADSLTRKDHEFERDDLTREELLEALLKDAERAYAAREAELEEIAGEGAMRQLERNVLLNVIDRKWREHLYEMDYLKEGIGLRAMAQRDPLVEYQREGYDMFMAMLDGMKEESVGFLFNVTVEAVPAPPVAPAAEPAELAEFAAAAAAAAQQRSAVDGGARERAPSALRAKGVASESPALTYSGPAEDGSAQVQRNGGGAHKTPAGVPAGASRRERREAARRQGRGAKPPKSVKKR

Structure (SMILES): CCCCCCC1c2ccc(O)cc2Oc2cc(O)ccc21 [SCA-50]
- IC50 [1]: 3 µM
- MIC [2]: 3.7 µg/mL (≈ 12.4 µM)
- Change of MIC on overexpression or deletion of NorA or MepA [3]: did not significantly change
- IC50 [4]: 2.3 µM
- MIC [5]: 3.7 µg/mL (≈ 12.4 µM)
- IC50 [6]: 60 µM
- IC50 [7]: 3 µM
- IC50 [8]: 17.5 µM
- IC50 [9]: 20 µM
- IC50 [10]: 20 µM
- MIC [11]: 6.25 µM (≈ 1.86 µg/mL)
- MIC [12]: 3.7 µg/mL (≈ 12.4 µM)
- MIC fold less than the MIC of ampicillin, kanamyin, erythromycin, and rifampicin ([13]; S. aureus Mu50): 250 fold
- MIC ([13]; MU50, read-out: Bacteriostatic MIC95, S. aureus Mu50, Table 2): 2.4 µg/mL
- MIC ([13]; MU50, read-out: Bacteriostatic effect MIC, S. aureus Mu50, Table 10 and Example 4): 4 µg/mL
- MIC ([13]; MU50, read-out: Bacteriostatic effect, MIC, S. aureus Mu50, Table 8): 3.7 µg/mL
- MIC ([13]; MU50, read-out: MIC95 against drug resistant S. aureus Mu50): 2.4 µM
- Bacteriostatic effect MIC, S. aureus Mu50 ([13]; Table 10 and text of Example 4): 3.7 µg/mL
- IC50 [14]: 1.1 µM
- IC50 ([14]; IC50, Ion-channel activity, SaSecA1, Table 7): 1.1 µM
- IC50 [15]: 60 µM
